From US20210315816A1, “ANTIMICROBIAL COMPOSITIONS AND METHODS” (BOARD OF REGENTS OF THE UNIVERSITY OF NEBRASKA, priority 2018, published 2021)

How the values were obtained:
S. aureus [1] = details: 10 mg/kg, cited from earlier work
[2] = test system: bone marrow-derived macrophages; test: IL-4 pre-treated bone marrow-derived macrophages with oligomycin: TNF-α, arginase, protein yield
Description: Bone marrow-derived macrophages were plated overnight and the following day cells were pre-treated with IL-4 (10 ng/mL) for 1 hour followed by various concentrations of oligomycin for 24 hours, whereupon TNF-α (FIG. 2A) and arginase (FIG. 2B) expression was determined by ELISA and enzymatic assay, respectively. Data are presented as the mean±SD combined from two independent experiments (n=6 biological replicates) (*, p<0.05; **, p<0.01; ***, p<0.001; Student's t-test).
Macrophages were expanded from the bone marrow of both male and female C57BL/6NCrl mice as described (Yamada, et al. (2018) Infect. Immun., 86(7) e00206-18). At day in vitro 6, macrophages were harvested and seeded at 5×10^4 cells/well in a 96-well plate. Following an overnight adherence period, macrophages were pre-treated with 10 ng/mL recombinant mouse (rm)IL-4 (Cat #574306 BioLegend, San Diego, Calif.) for 1 hour followed by exposure to various concentrations of oligomycin (Cat #11342 Cayman Chemical) for 24 hours, whereupon medium was collected to quantify TNF-α by cytometric bead array (Cat #552364, BD Biosciences) and arginase activity (Cat #MAK112, Millipore Sigma).

S. aureus USA300 LAC13c = test: Mouse model of S. aureus orthopedic implant biofilm infection, bacterial burdens; type: in vivo
Description: To model infectious complications that can arise in patients following arthroplasty, a mouse model of S. aureus orthopedic implant infection was used (Heim, et al. (2014) Methods Mol. Biol., 1106:183-191; Heim, et al. (2015) J. Leukoc. Biol., 98:1003-1013; Heim, et al. (2014) J. Immunol., 192:3778-3792; Heim, et al. (2015) J. Immunol., 194:3861-3872; Scherr, et al. (2014) Methods Mol. Biol., 1106:173-181). […] Briefly, mice were anesthetized with ketamine/xylazine (100 mg/kg and 5 mg/kg, respectively) and the surgical site was disinfected with povidone-iodine. After a surgical plane of anesthesia was achieved, a medial incision was created through the quadriceps with lateral displacement to access the distal femur. […]
Animals were placed in an induction chamber without restraint and anesthetized with 2.5% isoflurane. […] Nanoparticle injection and length of retention was evaluated in the same cohort of mice using an In Vivo Imaging System (IVIS® Spectrum; PerkinElmer, Waltham, Mass.) under isoflurane anesthesia, with excitation and emission wavelengths of 640 nm and 680 nm, respectively. […]

[3] = test system: biofilm-associated monocytes; test: JC-1 and 2-NBDG staining of biofilm-associated monocytes (OxPhos, glycolysis); type: in vivo, mouse; details: days 3 or 7 after intra-articular injection at day 7 post-infection; oligomycin 100 ng
Description: C57BL/6NCrl mice received a single intra-articular injection of free oligomycin only (Oligo; 100 ng), empty nanoparticles (CT), empty nanoparticles (CT)+free oligomycin (100 ng; not loaded), or oligomycin loaded nanoparticles (CTO) at day 7 post-infection and were analyzed at day 3 (FIG. 12A, 12B; 5 mice/group) or 7 (FIGS. 12C, 12D; 9-10 mice/group) after treatment. FIGS. 12A, 12C: OxPhos was calculated as the ratio of […] monocytes (CD11b^highLy6G^−Ly6C^+F4/80^−) following JC-1 staining and glycolytic activity was calculated as the percentage of 2-NBDG+ monocytes. FIGS. 12B, 12D: Bacterial burdens were assessed in the surrounding soft tissue, knee, femur, and implant, where the dotted lines represent the limit of detection (LOD). All results are reported as the mean±SD (*, p<0.05; **, p<0.01; ***, p<0.001; ****, p<0.0001; One-way ANOVA).
Leukocytes recovered from animals with sterile or S. aureus infected orthopedic implants were stained with the bi-potential dye JC-1 (5,5′,6,6′-Tetrachloro-1,1′,3,3′-tetraethylbenzimidazolocarbocyanine iodide; Cat #T3168 Invitrogen) or the fluorescent glucose analog 2-NBDG (2-(N-(7-Nitrobenz-2-oxa-1,3-diazol-4-yl)Amino)-2-Deoxyglucose; Cat #N13195 ThermoFisher) to evaluate OxPhos and glycolytic activity, respectively. JC-1 emits red fluorescence in mitochondria with large membrane potentials and green fluorescence in depolarized mitochondria. […]

S. aureus [4] = test: S. aureus biofilm formation in 96-well plates ± oligomycin; type: cell-based; details: 10 μg/mL
Description: C57BL/6NCrl mice received intra-articular injections of oligomycin at 7 day post-infection (100 ng), or two sequential doses at days 7 and 8 post-infection (50 ng/day), or PBS and were sacrificed at day 14 post-infection. Bacterial burdens were quantified from the surrounding soft tissue, knee, femur, and implant. Results are from one experiment (n=5 mice/group/time point); (*, p<0.05; one-way ANOVA). Additionally, S. aureus biofilm formation was assessed in 96-well plates±oligomycin treatment (bottom graphs). Oligomycin (10 μg/mL) was added to planktonic S. aureus at time 0 (left panel) or mature biofilms for 4 days (right panel) to determine effects on bacterial growth at the indicated time points following oligomycin treatment. Cultures were replenished daily with fresh medium containing oligomycin. Results are presented as Log10 colony forming units (CFU) per well (mean±SD).

[5] = IL-4 10 ng/mL 1 hour, then oligomycin 24 hours, dose-dependent

| SMILES | S. aureus titers in the joint (S. aureus [1]) | S. aureus burdens on orthopedic implants (S. aureus [1]; near the limit of detection) | toxicity to macrophages (protein yields) [2] | TNF-α expression [2, 5] | arginase activity [2, 5] | biofilm burdens (S. aureus USA300 LAC13c; days 3 or 7 after intra-articular injection, oligomycin 100 ng) | bacterial burdens (S. aureus USA300 LAC13c; direct intra-articular injection, one bolus (100 ng) or two sequential doses (50 ng/day), day 14 post-infection) | monocyte OxPhos activity (JC-1) [3] | bactericidal activity during early biofilm formation or mature biofilms in vitro (S. aureus [4]) |
| --- | --- | --- | --- | --- | --- | --- | --- | --- | --- |
| CCCCCCCCCC(=O)N[C@@H](Cc1c[nH]c2ccccc12)C(=O)N[C@H](CC(N)=O)C(=O)N[C@@H](CC(=O)O)C(=O)N[C@@H]1C(=O)NCC(=O)N[C@@H](CCCN)C(=O)N[C@@H](CC(=O)O)C(=O)N[C@H](C)C(=O)N[C@@H](CC(=O)O)C(=O)NCC(=O)N[C@H](CO)C(=O)N[C@@H]([C@H](C)CC(=O)O)C(=O)N[C@@H](CC(=O)c2ccccc2N)C(=O)O[C@@H]1C [daptomycin] | less affected | < 10^2 CFU |  |  |  |  |  |  |  |
| CC[C@H]1/C=C/C=C/C[C@@H](C)[C@H](O)[C@@](C)(O)C(=O)[C@@H](C)[C@H](O)[C@@H](C)C(=O)[C@@H](C)[C@H](O)[C@@H](C)/C=C/C(=O)O[C@@H]2[C@H](C)[C@H](CC1)O[C@]1(CC[C@H](C)[C@H](C[C@@H](C)O)O1)[C@H]2C [oligomycin] |  |  | not toxic to macrophages | increasing TNF-α expression | decreasing arginase activity | no changes | no effect on bacterial burdens | no changes | no bactericidal activity |
